Experimental data published in US7741327B2 (Hoffmann-La Roche Inc., priority 2008, dated 2010).

Molecular target: T1, Recombinant human liver GK1 (GST-GK) (Homo sapiens, UniProt P35557)
T1 construct: made in house; host or cells: E. coli
T1 sequence (P35557 1-466 isoform P35557-2): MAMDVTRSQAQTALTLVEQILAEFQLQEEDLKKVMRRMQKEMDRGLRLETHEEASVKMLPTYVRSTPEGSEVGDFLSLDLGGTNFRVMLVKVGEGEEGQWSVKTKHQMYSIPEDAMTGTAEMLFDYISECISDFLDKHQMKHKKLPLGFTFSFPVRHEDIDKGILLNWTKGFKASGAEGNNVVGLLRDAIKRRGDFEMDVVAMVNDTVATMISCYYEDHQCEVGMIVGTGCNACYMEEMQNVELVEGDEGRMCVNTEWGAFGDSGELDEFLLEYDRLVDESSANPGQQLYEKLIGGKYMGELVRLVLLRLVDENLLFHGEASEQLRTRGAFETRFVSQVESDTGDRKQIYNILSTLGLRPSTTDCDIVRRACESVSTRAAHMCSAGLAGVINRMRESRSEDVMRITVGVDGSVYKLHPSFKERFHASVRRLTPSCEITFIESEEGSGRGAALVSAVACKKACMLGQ
Assay: In vitro glucokinase activity (G6PDH-coupled NADH assay)
Format: biochemical
Conditions: 30° C., 5 mM D-glucose, 10% DMSO
Summary of the method: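 Activation measured as the rate of OD340 rise from G6PDH-coupled NADH production, relative to 10% DMSO control, reported as SC1.5 (concentration for 50% activity increase). Conditions: 30° C, pH 7.1 Hepes, 5 mM glucose, 1 mM ATP, purified recombinant GST-human GK1, compound preincubated 10 min before enzyme addition.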

SC1.5 (concentration of activator that produced a 50% increase in the activity of GK) | Structure (SMILES)
4.287 µM | O=C(Nc1ccn(C[C@@H](O)CO)n1)C(CC(C(F)(F)F)C(F)(F)F)N1CC(Oc2ccccc2Cl)=CC1=O (stereo partly drawn) [Example 219, 2-[4-(2-Chloro-phenoxy)-2-oxo-2,5-dihydro-pyrrol-1-yl]-5,5,5-trifluoro-4-trifluoromethyl-pentanoic acid [1-((R)-2,3-dihydroxy-propyl)-1H-pyrazol-3-yl]-amide]
6.017 µM | CC[C@H](C)C[C@H](C(=O)Nc1ccn(C[C@@H](O)CO)n1)N1CC(Oc2ccccc2Cl)=CC1=O (single isomer, unassigned) [Example 250]
15.278 µM | O=C(Nc1ccn(C[C@@H](O)CO)n1)[C@H](CCO)N1CC(Oc2ccccc2Cl)=CC1=O [Example 222, (S)-2-[4-(2-Chloro-phenoxy)-2-oxo-2,5-dihydro-pyrrol-1-yl]-N-[1-((R)-2,3-dihydroxy-propyl)-1H-pyrazol-3-yl]-4-hydroxy-butyramide]
0.944 µM | CC(CC(C(=O)Nc1ccn(CC(C)(C)O)n1)N1CC(Oc2ccccc2Cl)=CC1=O)C(F)(F)F (stereo not drawn) [Example 226, 2-[4-(2-Chloro-phenoxy)-2-oxo-2,5-dihydro-pyrrol-1-yl]-5,5,5-trifluoro-4-methyl-pentanoic acid [1-(2-hydroxy-2-methyl-propyl)-1H-pyrazol-3-yl]-amide]
2.458 µM | CC(C)C[C@@H](C(=O)Nc1ccn(CC(C)(C)O)n1)N1CC(Oc2cccc(O)c2N)=CC1=O [Example 241, (S)-2-[4-(2-Amino-3-hydroxy-phenoxy)-2-oxo-2,5-dihydro-pyrrol-1-yl]-4-methyl-pentanoic acid [1-(2-hydroxy-2-methyl-propyl)-1H-pyrazol-3-yl]-amide]
1.969 µM | CC(C)C[C@@H](C(=O)Nc1ccn(C[C@@H]2COC(C)(C)O2)n1)N1CC(Oc2cccc(CC(C)(C)O)c2)=CC1=O [Example 237, (S)-2-{4-[3-(2-Hydroxy-2-methyl-propyl)-phenoxy]-2-oxo-2,5-dihydro-pyrrol-1-yl}-4-methyl-pentanoic acid [1-((R)-2,2-dimethyl-[1,3]dioxolan-4-ylmethyl)-1H-pyrazol-3-yl]-amide]
0.984 µM | CCOc1cccc(OC2=CC(=O)N([C@@H](C[C@H](C)OCC)C(=O)Nc3ccn(CC(C)(C)O)n3)C2)c1F [Example 259, (2S,4S)-4-Ethoxy-2-[4-(3-ethoxy-2-fluoro-phenoxy)-2-oxo-2,5-dihydro-pyrrol-1-yl]-pentanoic acid [1-(2-hydroxy-2-methyl-propyl)-1H-pyrazol-3-yl]-amide]
0.054 µM | Cc1ccc(OC2=CC(=O)N([C@@H](CC3CCCCC3)C(=O)Nc3ccn(CC(C)(C)O)n3)C2)cn1 [Example 212, (S)-3-cyclohexyl-N-[1-(2-hydroxy-2-methyl-propyl)-1H-pyrazol-3-yl]-2-[4-(6-methyl-pyridin-3-yloxy)-2-oxo-2,5-dihydro-pyrrol-1-yl]-propionamide]
0.012 µM | CC(C)(O)Cn1ccc(NC(=O)[C@H](CC2CCCCC2)N2CC(Oc3ccc(Cl)cc3Cl)=CC2=O)n1 [Example 202, (S)-3-cyclohexyl-2-[4-(2,4-dichloro-phenoxy)-2-oxo-2,5-dihydro-pyrrol-1-yl]-N-[1-(2-hydroxy-2-methyl-propyl)-1H-pyrazol-3-yl]-propionamide]
0.006 µM | CCOc1ccc(F)c(OC2=CC(=O)N([C@@H](CC3CCOCC3)C(=O)Nc3ccn(CC(C)(C)O)n3)C2)c1F (single isomer, unassigned) [Example 257]

Continued, compound first:

Structure (SMILES) | SC1.5 (concentration of activator that produced a 50% increase in the activity of GK)
CC1(C)OC[C@@H](Cn2ccc(NC(=O)[C@H](Cc3ccccc3F)N3CC(Oc4ccccc4Cl)=CC3=O)n2)O1 [Example 182, (S)-2-[4-(2-chloro-phenoxy)-2-oxo-2,5-dihydro-pyrrol-1-yl]-N-[1-((R)-2,2-dimethyl-[1,3]dioxolan-4-yl-methyl)-1H-pyrazol-3-yl]-3-(2-fluoro-phenyl)-propionamide] | 0.496 µM
CC(C)(O)Cn1ccc(NC(=O)[C@H](CC2CCCCC2)N2CC(Oc3ccccc3C(C)(C)C)=CC2=O)n1 [Example 197, (S)-2-[4-(2-t-butyl-phenoxy)-2-oxo-2,5-dihydro-pyrrol-1-yl]-3-cyclohexyl-N-[1-(2-hydroxy-2-methyl-propyl)-1H-pyrazol-3-yl]-propionamide] | 0.892 µM
O=C(Nc1ccn(C[C@@H](O)CO)n1)[C@@H](CC1CCC1)N1CC(Oc2ccccc2Cl)=CC1=O [Example 177, (R)-2-[4-(2-chloro-phenoxy)-2-oxo-2,5-dihydro-pyrrol-1-yl]-3-cyclobutyl-N-[1-((R)-2,3-dihydroxy-propyl)-1H-pyrazol-3-yl]-propionamide] | 4.725 µM
CC(C)C[C@@H](C(=O)Nc1ccn(C)n1)N1CC(Oc2cccc(O)c2F)=CC1=O [Example 127, (S)-2-[4-(2-Fluoro-3-hydroxy-phenoxy)-2-oxo-2,5-dihydro-pyrrol-1-yl]-4-methyl-pentanoic acid (1-methyl-1H-pyrazol-3-yl)-amide] | 0.414 µM
C=CCOC(=O)Cc1nsc(NC(=O)[C@H](CC(C)C)N2CC(Oc3ccccc3Cl)=CC2=O)n1 [Example 111, (5-{(S)-2-[4-(2-Chloro-phenoxy)-2-oxo-2,5-dihydro-pyrrol-1-yl]-4-methyl-pentanoylamino}-[1,2,4]thiadiazol-3-yl)-acetic acid allyl ester] | 0.694 µM
CC(C)(O)Cn1ccc(NC(=O)[C@H](CC2CCCCC2)N2CC(Oc3c(F)ccc(Cl)c3F)=CC2=O)n1 [Example 72, (S)-2-[4-(3-Chloro-2,6-difluoro-phenoxy)-2-oxo-2,5-dihydro-pyrrol-1-yl]-3-cyclohexyl-N-[1-(2-hydroxy-2-methyl-propyl)-1H-pyrazol-3-yl]-propionamide] | 0.024 µM
CCO[C@H](C)C[C@@H](C(=O)Nc1ccn(CC(C)(C)O)n1)N1CC(Oc2cccc(Cl)c2Cl)=CC1=O [Example 94, (2S,4R)-2-[4-(2,3-Dichloro-phenoxy)-2-oxo-2,5-dihydro-pyrrol-1-yl]-4-ethoxy-pentanoic acid [1-(2-hydroxy-2-methyl-propyl)-1H-pyrazol-3-yl]-amide] | 0.772 µM
CC(C)C[C@@H](C(=O)Nc1ccn(CC(N)=O)n1)N1CC(Oc2cccc(C3CC3)c2F)=CC1=O [Example 156, (S)-2-[4-(3-Cyclopropyl-2-fluoro-phenoxy)-2-oxo-2,5-dihydro-pyrrol-1-yl]-4-methyl-pentanoic acid (1-carbamoylmethyl-1H-pyrazol-3-yl)-amide] | 0.406 µM
CC1(C)OC[C@@H](Cn2ccc(NC(=O)[C@H](CC3CCCCC3)N3CC(Oc4ccccc4Cl)=CC3=O)n2)O1 [Example 62] | 0.01 µM
CC(C)C[C@@H](C(=O)Nc1ccn(CC(C)(C)O)n1)N1CC(Oc2cccc(O)c2F)=CC1=O [Example 126, (S)-2-[4-(2-Fluoro-3-hydroxy-phenoxy)-2-oxo-2,5-dihydro-pyrrol-1-yl]-4-methyl-pentanoic acid [1-(2-hydroxy-2-methyl-propyl)-1H-pyrazol-3-yl]-amide] | 0.182 µM
CC(C)C[C@@H](C(=O)Nc1ncc(Cl)s1)N1CC(Oc2ccccc2Cl)=CC1=O [Example 190, (S)-2-[4-(2-chloro-phenoxy)-2-oxo-2,5-dihydro-pyrrol-1-yl]-4-methyl-pentanoic acid (5-chloro-thiazol-2-yl)-amide] | 0.63 µM
O=C(Nc1ccn(C[C@@H](O)CO)n1)C(CC1CCC1)N1CC(Oc2ccccc2Cl)=CC1=O (stereo partly drawn) [Example 169, 2-[4-(2-chloro-phenoxy)-2-oxo-2,5-dihydro-pyrrol-1-yl]-3-cyclobutyl-N-[1-((R)-2,3-dihydroxy-propyl)-1H-pyrazol-3-yl]-propionamide] | 0.086 µM
COC(=O)c1ccc(NC(=O)[C@H](CC2CCCCC2)N2CC(Oc3c(F)ccc(Cl)c3F)=CC2=O)nc1 [Example 73, 6-{(S)-2-[4-(3-Chloro-2,6-difluoro-phenoxy)-2-oxo-2,5-dihydro-pyrrol-1-yl]-3-cyclohexyl-propionylamino}-nicotinic acid methyl ester] | 0.036 µM
CC(C)C[C@@H](C(=O)Nc1ccn(CC(C)(C)O)n1)N1CC(Oc2c(F)ccc(OC(C)C)c2F)=CC1=O [Example 135, (S)-2-[4-(2,6-Difluoro-3-isopropoxy-phenoxy)-2-oxo-2,5-dihydro-pyrrol-1-yl]-4-methyl-pentanoic acid [1-(2-hydroxy-2-methyl-propyl)-1H-pyrazol-3-yl]-amide] | 0.066 µM
